Biological target: purified human Hsp90
Experiment: Binding Assay: fluorescence polarization with BODIPY-labeled geldanamycin
Settings: BODIPY-GM 10 nM, Hsp90 30 nM
Procedure, shortened: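 Compounds in 2% DMSO final compete with 10 nM BODIPY-GM for 30 nM purified human Hsp90, incubated overnight at room temperature in pH 7.3 HEPES buffer containing Na2MoO4 and DTT. Polarization (mP, ex/em 485/530) normalized to DMSO gives percent inhibition; autofluorescence-confounded data excluded.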

Row | IC50 [nM] | % Inhibition at 5 μM Compound Concentration [%] | SMILES
1 | 90 |  | Nc1ncnc2c1nc(Sc1cc3c(cc1Br)OCO3)n2CCC1CCNC1 (stereo not shown) [Example 476, 8-[(6-Bromo-1,3-benzodioxol-5-yl)thio]-9-(2-pyrrolidin-3-ylethyl)-9 H-purin-6-amine]
2 | 467 |  | Nc1ncnc2c1nc(Sc1cc3c(cc1Br)OCO3)n2CC[C@@H]1CCCCN1 [Example 477, 8-[(6-Bromo-1,3-benzodioxol-5-yl)thio]-9-{2-[(2S)-piperidin-2-yl]ethyl}-9 H-purin-6-amine]
3 | 50 |  | Nc1ncnc2c1nc(Sc1cc3c(cc1Br)OCO3)n2CC[C@H]1CC[C@@H](N)CC1 [Example 481, 9-[2-(cis-4-Aminocyclohexyl)ethyl] 8-[(6-bromo-1,3-benzodioxol-5-yl)thio]-9 H-purin-6-amine]
4 | 184 |  | Nc1ncnc2c1nc(Sc1cc3c(cc1Br)OCO3)n2CCC1CNC1 [Example 483, 9-(2-Azetidin-3-ylethyl)-8-[(6-bromo-1,3-benzodioxol-5-yl)thio]-9 H-purin-6-amine]
5 | 600 |  | Nc1ncnc2c1nc(Sc1cc3c(cc1Br)OCO3)n2CC[C@@H]1CCNC1 [Example 484, 8-[(6-Bromo-1,3-benzodioxol-5-yl)thio]-9-{2-[(3S)-pyrrolidin-3-yl]ethyl}-9 H-purin-6-amine]
6 | 1000 |  | COc1ccc(OC)c(Sc2nc3c(N)ncnc3n2CCN2C(=O)CCCC2=O)c1 [Example 485, 1-(2-{6-Amino-8-[(2,5-dimethoxyphenyl)thio]-9H-purin-9-yl}ethyl)piperidine-2,6-dione]
7 | 7000 |  | C=Cn1c(S(=O)(=O)c2cc(OC)ccc2OC)nc2c(N)ncnc21 [Example 486, 8-(2,5-dimethoxy-phenylsulfonyl)-9-vinyl-9H -purin-6-ylamine]
8 |  | 29 | CC(C)N1CCN(CCn2cnc(N)c3nc(Sc4cc5c(cc4Br)OCO5)nc2-3)CC1 [Example 488, 8-[(6-Bromo-1,3-benzodioxol-5-yl)thio]-3-[2-(4-isopropylpiperazin-1-yl)ethyl]-3H-purin-6-amine]
9 | 25000 |  | COc1ccc(OC)c(Sc2nc3c(N)ncn(CCN4CCCCC4)c-3n2)c1 [Example 490, 8-[(2,5-Dimethoxyphenyl)thio]-3-(2-piperidin-1-ylethyl)-3 H-purin-6-amine]
10 | 900 |  | Nc1ncn(CCN2CCCCC2)c2nc(Sc3cc4c(cc3Br)OCO4)nc1-2 [Example 492, 8-[(6-Bromo-1,3-benzodioxol-5-yl)thio]-3-(2-piperidin-1-ylethyl)-3 H-purin-6-amine]
11 | 5500 |  | COc1ccc(OC)c(Sc2nc3c(N)ncnc3n2CCN2CCN(C3CCCC3)CC2)c1 [Example 494, 9-[2-(4-Cyclopentylpiperazin-1-yl)ethyl]-8-[(2,5-dimethoxyphenyl)thio]-9 H-purin-6-amine]
12 |  | 6 | COc1ccc(OC)c(Sc2nc3c(N)ncn(CCN4CCN(C5CCCC5)CC4)c-3n2)c1 [Example 495, 3-[2-(4-Cyclopentylpiperazin-1-yl)ethyl]-8-[(2,5-dimethoxyphenyl)thio]-3 H-purin-6-amine]
13 | 81 |  | Nc1ncnc2c1nc(Sc1cc3c(cc1Br)OCO3)n2CCN1C(=O)CCCC1=O [Example 496, 1-(2-{6-Amino-8-[(6-bromo-1,3-benzodioxol-5-yl)thio]-9H-purin-9-yl}ethyl)piperidine-2,6-dione]
14 | 25000 |  | Nc1ncn(CCN2C(=O)CCCC2=O)c2nc(Sc3cc4c(cc3Br)OCO4)nc1-2 [Example 497, 1-(2-{6-amino-8-[(6-bromo-1,3-benzodioxol-5-yl)thio]-3H-purin-3-yl}ethyl)piperidine-2,6-dione]

Row | SMILES | IC50 [nM] | % Inhibition at 5 μM Compound Concentration [%]
15 | CC(C)N1CCN(CCn2c(Sc3cc4c(cc3Br)OCO4)nc3c(N)ncnc32)CC1 [Example 487, 8-[(6-Bromo-1,3-benzodioxol-5-yl)thio]-9-[2-(4-isopropylpiperazin-1-yl)ethyl]-9H-purin-6-amine] | 900 | 
16 | COc1ccc(OC)c(Sc2nc3c(N)ncnc3n2CCN2CCN(C(C)C)CC2)c1 [Example 493, 8-[(2,5-Dimethoxyphenyl)thio]-9-[2-(4-isopropylpiperazin-1-yl)ethyl]-9 H-purin-6-amine] | 8900 | 

Reference: patent US7595401B2, “Therapeutic compounds and their use in cancer” (Myriad Pharmaceuticals, Inc., priority 2006, dated 2009)
